Assay results from patent US20150352108A1, “AMINO-PYRIMIDINE COMPOUNDS AS INHIBITORS OF TBK1 AND/OR IKK EPSILON” (Alzheimer's Institute of America, priority 2009, published 2015).
Read-outs that look alike come from different tables or passages of the source.

How the values were obtained:
[1] = test system: IKKε-mediated phosphorylation of IRF3; test: In-situ phosphorylation of IRF3 (pIRF3 Ser396 ELISA) in HEK293T cells cotransfected with IRF3 and IKKε; format: cell-based; conditions: Homo sapiens, HEK-293T
In short: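 For the IRF3 ELISA, HEK293T cells cotransfected with IRF3 and IKKε were replated at 20,000/well and treated 20 h. Phospho-Ser396 IRF3 was measured by ELISA and normalised to DMSO, with viability checked by CellTiter-Glo. For IRF7, cells transfected with IRF7 and TBK1 were treated overnight, and pSer477/Ser479 IRF7 was detected by Western blot.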

IKKε = molecular target: T1, IKKε (Homo sapiens, UniProt Q14164); test: In-vitro IKKε kinase assay ([γ33]ATP filter-plate); format: biochemical
T1 construct: His-tag; made in house; host or cells: Sf9 insect cells
T1 sequence (Q14164 1-716): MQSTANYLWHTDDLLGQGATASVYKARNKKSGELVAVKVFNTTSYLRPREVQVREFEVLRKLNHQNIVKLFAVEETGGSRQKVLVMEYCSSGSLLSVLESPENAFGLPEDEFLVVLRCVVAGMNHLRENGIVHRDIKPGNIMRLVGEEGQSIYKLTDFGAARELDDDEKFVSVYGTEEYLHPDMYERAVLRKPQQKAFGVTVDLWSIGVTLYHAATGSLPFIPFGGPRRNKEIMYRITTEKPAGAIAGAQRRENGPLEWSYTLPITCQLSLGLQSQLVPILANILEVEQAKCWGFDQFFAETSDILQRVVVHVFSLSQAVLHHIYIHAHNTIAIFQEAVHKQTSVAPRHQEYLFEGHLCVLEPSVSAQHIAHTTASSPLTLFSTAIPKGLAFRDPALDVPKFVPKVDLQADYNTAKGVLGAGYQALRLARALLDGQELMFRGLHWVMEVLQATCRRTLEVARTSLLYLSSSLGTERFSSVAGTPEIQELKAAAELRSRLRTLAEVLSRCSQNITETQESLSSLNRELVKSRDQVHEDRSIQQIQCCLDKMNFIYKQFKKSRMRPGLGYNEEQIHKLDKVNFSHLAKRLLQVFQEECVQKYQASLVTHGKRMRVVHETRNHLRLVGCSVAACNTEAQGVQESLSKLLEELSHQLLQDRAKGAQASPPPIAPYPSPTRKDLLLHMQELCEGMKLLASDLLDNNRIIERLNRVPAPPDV
In short: (§1)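 His-tagged Sf9-expressed kinases at 0.1 or 0.02 μg/ml (TBK1) and 0.1 or 0.015 μg/ml (IKKε) for normal and sensitized formats, with myelin basic protein or casein substrate. ATP was at 2×Km (60 μM TBK1, 32 μM IKKε) plus 0.3 μCi [γ33]ATP. Reactions ran 30-45 min, were captured on P-81 filters, and counts were normalized to DMSO.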

TBK1 = molecular target: T2, TBK1 (Homo sapiens, UniProt Q9UHD2); test: In-vitro TBK1 kinase assay ([γ33]ATP filter-plate); format: biochemical
T2 construct: His-tag; made in house; host or cells: Sf9 insect cells
T2 sequence (Q9UHD2 1-729): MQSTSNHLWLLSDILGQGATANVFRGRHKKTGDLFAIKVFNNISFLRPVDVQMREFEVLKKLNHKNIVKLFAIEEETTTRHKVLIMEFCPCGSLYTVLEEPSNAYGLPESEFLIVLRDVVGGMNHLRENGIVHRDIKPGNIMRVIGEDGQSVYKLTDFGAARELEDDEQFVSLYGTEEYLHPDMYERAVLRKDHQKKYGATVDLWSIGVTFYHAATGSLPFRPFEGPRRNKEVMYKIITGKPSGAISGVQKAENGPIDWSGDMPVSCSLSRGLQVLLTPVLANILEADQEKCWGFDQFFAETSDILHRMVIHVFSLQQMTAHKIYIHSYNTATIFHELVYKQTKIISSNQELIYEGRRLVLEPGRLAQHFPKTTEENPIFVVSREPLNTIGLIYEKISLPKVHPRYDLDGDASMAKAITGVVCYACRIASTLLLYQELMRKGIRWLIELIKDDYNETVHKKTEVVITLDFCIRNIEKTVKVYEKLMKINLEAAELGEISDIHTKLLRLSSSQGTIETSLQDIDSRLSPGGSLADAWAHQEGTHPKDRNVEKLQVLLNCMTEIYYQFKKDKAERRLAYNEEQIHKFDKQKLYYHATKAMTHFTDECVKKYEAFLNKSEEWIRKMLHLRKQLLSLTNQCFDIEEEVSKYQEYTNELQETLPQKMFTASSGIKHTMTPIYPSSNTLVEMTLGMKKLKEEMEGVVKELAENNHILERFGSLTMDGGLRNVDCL
In short: as §1

[2] = HEK293T cells, 20 hours, text bins, read-out: IC50 for inhibition of the in-situ IKKε-mediated phosphorylation of IRF3
[3] = text bins, read-out: IC50 for inhibition of the kinase activity of IKKε
[4] = text bins, read-out: IC50 for inhibition of the kinase activity of TBK1
[5] = HEK293T cells in culture, Table 3, read-out: pIRF3 ELISA IC50

| IC50 [1, 2] [nM] | IC50 (IKKε; [3]) [nM] | IC50 (TBK1; [4]) [nM] | IC50 [1, 5] [nM] | IC50 (IKKε; Table 3, read-out: IKKε IC50) [nM] | IC50 (TBK1; Table 3, read-out: TBK1 IC50) [nM] | Structure (SMILES) |
| --- | --- | --- | --- | --- | --- | --- |
| < 100 | < 5 | < 10 |  |  |  | N#Cc1cc(-c2ccnc(Nc3ccc(CS(=O)(=O)NCCO)cc3)n2)ccc1OC1CCOCC1 [compound 402, 1-[4-({4-[3-Cyano-4-(tetrahydro-2H-pyran-4-yloxy)phenyl]pyrimidin-2-yl}amino)phenyl]-N-(2-hydroxyethyl) methanesulfonamide] |
| < 100 | < 5 | < 10 | 25.9 | 1.1 | 0.1 | COc1cc(Nc2nccc(-c3ccc(OC4CCOCC4)c(C#N)c3)n2)ccc1C(=O)N1CCN2CCCC2C1 (stereo not drawn) [compound 501, 5-(2-{[4-(hexahydropyrrolo[1,2-a]pyrazin-2(1H)-ylcarbonyl)-3-methoxyphenyl]amino}pyrimidin-4-yl)-2-(tetrahydro-2H-pyran-4-yloxy)benzonitrile] |
| 250 to 500 | < 5 | < 10 |  |  |  | COc1cc(Nc2nccc(-c3ccc(OC4CCN(C(=O)[C@H](C)O)CC4)c(C#N)c3)n2)ccc1N1CCOCC1 [Example 208, 2-({1-[(2S)-2-hydroxypropanoyl]piperidin-4-yl}oxy)-5-(2-{[3-methoxy-4-(morpholin-4-yl)phenyl]amino}pyrimidin-4-yl)benzonitrile] |
| < 100 | < 5 | < 10 |  |  |  | COc1ccc(Nc2nccc(-c3ccc(OC4CCOCC4)c(C#N)c3)n2)cc1OCCCN1CCN(C(C)C)CC1 [compound 523, 5-{2-[(4-methoxy-3-{3-[4-(propan-2-yl)piperazin-1-yl]propoxy}phenyl)amino]pyrimidin-4-yl}-2-(tetrahydro-2H-pyran-4-yloxy)benzonitrile] |
| < 100 | < 5 | < 10 |  |  |  | COc1cc(Nc2nccc(-c3ccc(OC4CCOCC4)c(C#N)c3)n2)ccc1CN1C[C@@H](C)O[C@@H](C)C1 [compound 480, 5-{2-[(4-{[(2R,6S)-2,6-Dimethylmorpholin-4-yl]methyl}-3-methoxyphenyl)amino]pyrimidin-4-yl}-2-(tetrahydro-2H-pyran-4-yloxy)benzonitrile] |
| 100 to 250 | < 5 | < 10 |  |  |  | COc1cc(Nc2nccc(-c3ccc(OC4CCOCC4)c(C#N)c3)n2)ccc1OCCCS(=O)(=O)N1CCN(C)CC1 [Example 25, 5-{2-[(3-methoxy-4-{3-[(4-methylpiperazin-1-yl)sulfonyl]propoxy}phenyl)amino]pyrimidin-4-yl}-2-(tetrahydro-2H-pyran-4-yloxy)benzonitrile] |
| < 100 | < 5 | < 10 |  |  |  | COc1cc(Nc2nccc(-c3ccc(OC4CCOCC4)c(C#N)c3)n2)ccc1S(=O)(=O)N1CCN(C)CC1 [Example 114, 5-[2-({3-methoxy-4-[(4-methylpiperazin-1-yl)sulfonyl]phenyl}amino)pyrimidin-4-yl]-2-(tetrahydro-2H-pyran-4-yloxy)benzonitrile] |
| < 100 | < 5 | < 10 |  |  |  | COc1cc(Nc2nccc(-c3ccc(OC4CCOCC4)c(C#N)c3)n2)ccc1C(=O)N1CCC1 [compound 567, 5-(2-{[4-(Azetidin-1-ylcarbonyl)-3-methoxyphenyl]amino}pyrimidin-4-yl)-2-(tetrahydro-2H-pyran-4-yloxy)benzonitrile] |
| 250 to 500 | < 5 | < 10 |  |  |  | COc1ccc(Nc2nccc(-c3ccc(OC4CCOCC4)c(C#N)c3)n2)cc1OCC(N)=O [Example 132, 2-[5-({4-[3-cyano-4-(tetrahydro-2H-pyran-4-yloxy)phenyl]pyrimidin-2-yl}amino)-2-methoxyphenoxy] acetamide] |
| < 100 | < 5 | 10 to 100 |  |  |  | COc1cc(Nc2nccc(-c3ccc(OC4CCOCC4)c(C#N)c3)n2)ccc1CN1CCN(CCO)CC1 [compound 477, 5-{2-[(4-{[4-(2-Hydroxyethyl)piperazin-1-yl]methyl}-3-methoxyphenyl)amino]pyrimidin-4-yl}-2-(tetrahydro-2H-pyran-4-yloxy)benzonitrile] |
| < 100 | < 5 | < 10 |  |  |  | Cc1ccc(Nc2nccc(-c3ccc(OC4CCOCC4)c(C#N)c3)n2)cc1OCCCN1CCOCC1 [compound 517, 5-[2-({4-Methyl-3-[3-(morpholin-4-yl)propoxy]phenyl}amino)pyrimidin-4-yl]-2-(tetrahydro-2H-pyran-4-yloxy)benzonitrile] |
| 100 to 250 | < 5 | < 10 |  |  |  | CC(C)N1CCN(CCOc2cc(Nc3nccc(-c4ccc(OCC5CC5)c(C#N)c4)n3)ccc2F)CC1 [compound 574, 2-(Cyclopropylmethoxy)-5-{2-[(4-fluoro-3-{2-[4-(propan-2-yl)piperazin-1-yl]ethoxy}phenyl)amino]pyrimidin-4-yl}benzonitrile] |
| < 100 | < 5 | < 10 | 12.2 | 0.2 | 0.2 | COc1cc(Nc2nccc(-c3ccc(OC4CCOCC4)c(C#N)c3)n2)ccc1S(=O)(=O)N1CCCN(C)CC1 [compound 392, 5-[2-({3-Methoxy-4-[(4-methyl-1,4-diazepan-1-yl)sulfonyl]phenyl}amino)pyrimidin-4-yl]-2-(tetrahydro-2H-pyran-4-yloxy)benzonitrile] |
| < 100 | < 5 | < 10 |  |  |  | CCN(CC)CCOc1cc(Nc2nccc(-c3ccc(OC4CCOCC4)c(C#N)c3)n2)ccc1C [compound 618, 5-[2-({3-[2-(Diethylamino)ethoxy]-4-methylphenyl}amino)pyrimidin-4-yl]-2-(tetrahydro-2H-pyran-4-yloxy)benzonitrile] |
| < 100 | < 5 | < 10 |  |  |  | COc1cc(-c2ccnc(Nc3ccc(N4CCOCC4)cc3)n2)cc(C#N)c1OC1CCNCC1 [compound 440, 3-Methoxy-5-(2-{[4-(morpholin-4-yl)phenyl]amino}pyrimidin-4-yl)-2-(piperidin-4-yloxy)benzonitrile] |
| 100 to 250 | < 5 | < 10 |  |  |  | COc1ccc(Nc2nccc(-c3ccc(OC4CCOCC4)c(C#N)c3)n2)cc1OCCCN1CCNCC1 [compound 526, 5-[2-({4-methoxy-3-[3-(piperazin-1-yl)propoxy]phenyl}amino)pyrimidin-4-yl]-2-(tetrahydro-2H-pyran-4-yloxy)benzonitrile] |
| 250 to 500 | < 5 | < 10 |  |  |  | COc1cc(Nc2nccc(-c3ccc(OC4CCOCC4)c(C#N)c3)n2)ccc1OCCN [Example 30, 5-(2-{[4-(2-aminoethoxy)-3-methoxyphenyl]amino}pyrimidin-4-yl)-2-(tetrahydro-2H-pyran-4-yloxy)benzonitrile] |
| < 100 | < 5 | < 10 |  |  |  | N#Cc1cc(-c2ccnc(Nc3ccc(OCCCN4CCOCC4)cc3)n2)ccc1OC1CCOCC1 [compound 527, 5-[2-({4-[3-(morpholin-4-yl)propoxy]phenyl}amino)pyrimidin-4-yl]-2-(tetrahydro-2H-pyran-4-yloxy)benzonitrile] |
